Laboratory results: patent US11161803B2, “Ammonium carboxylate compound, crystalline form, amorphous form and preparation method thereof” (priority 2017, dated 2021)
Structures can show the parent of a compound that is named as a salt.

Experiments:
Assay type in all cases: physicochemical
[1] = Drug interaction test: stability of the mixture of crystalline form I of the compound of formula (A) + compound of formula (B)
Excerpt: The applicant has found through repeated studies in the research of drug compatibility that the compound of formula (A), the crystalline form I, single crystal, amorphous form, crystalline form II thereof have good compatibility with the compound of formula (I) described in CN103709154A. A specific compound of formula (B) was selected to be mixed with the crystalline form I of the compound of formula (A) prepared in example 3 of the present disclosure for further stability studies.

[2] = Solid form and hygroscopicity of the salts as obtained (comparative examples); details: for hygroscopicity (in words) / solid form (in words): product as obtained
Experimental: (§1) A crude product of ethyl (2R,4S)-5-(biphenyl-4-yl)-4-[(3-carboxypropionyl)amino]-2-methylpentanoate (52.4 g, 0.125 mol) and acetone (629 ml) were added to a 1 L three-necked flask equipped with a mechanical stirrer, stirred and dissolved at room temperature; cooled to 0-10° C. for 5-10 min, added dropwise with potassium hydroxide solution (25 ml, 5 mol/L), after the addition was completed, kept stirring for 1 h, concentrated to dryness, added with methanol (125 ml) or ethanol (125 ml), concentrated to dryness to give potassium 4((2S,4R)-1-([1,1′-biphenyl]-4-yl)-5-ethoxy-4-methyl-5-oxopentan-2-yl)amino)-4-oxobutanoate (AHU-377 potassium salt).
as §1, with “min and” for “min,”, “sodium” for “potassium”, “sodium 4-(((2S,4R)-1-([1,1′-biphenyl]-4-yl)-5-ethoxy-4-methyl-5-oxopentan-2-yl)amino)-4-oxobutyrate” for “potassium 4((2S,4R)-1-([1,1′-biphenyl]-4-yl)-5-ethoxy-4-methyl-5-oxopentan-2-yl)amino)-4-oxobutanoate”
A crude product of ethyl (2R,4S)-5-(biphenyl-4-yl)-4-[(3-carboxypropionyl)amino]-2-methylpentanoate (52.4 g, 0.125 mol) and acetone (629 ml) were added to a 1 L three-necked flask equipped with a mechanical stirrer, stirred and dissolved at room temperature: cooled to 0-10° C. for 5-10 min and added dropwise with a basic ammonium salt such as choline (15 g, 0.125 mol), after the addition was completed, kept stirring for 1 h, concentrated to dryness, added with methanol (125 ml) or ethanol (125 ml), and concentrated to dryness.

[3] = Water adsorption and desorption test (DVS, hygroscopicity); details: 25° C.; for change of hygroscopicity: under 80% humidity
Experimental: DVS detection of the ammonium salt: instrument model: TA Q5000SA, balance at 25° C., humidity start from 0.00%, balance for 180 min, balance for 15 min when the weight gain is less than 0.01%, 10% gradient humidity increase from 0.00% to 90.00%, each gradient maintained for 120 min; a 10% gradient humidity reduction procedure performed when the humidity is from 90.00% to 0.00%, each gradient maintained for 120 min.
DVS detection of other products: instrument model: SMS DVS Intrinsic, 0-95% RH, temperature: 25° C.
The water adsorption and desorption tests of the compound (A) of example 1 at 25° C., 0 to 95% relative humidity were carried out by a dynamic water adsorber (DVS) to determine the hygroscopicity of the compound of formula (A).
The water adsorption and desorption experiments of the crystalline form I of the compound of formula (A) prepared by methods of example 3 at 25° C., 0 to 95% relative humidity were carried out by a dynamic water adsorber (DVS) to determine the hygroscopicity of the crystalline form I of the compound of formula (A).
The water adsorption and desorption experiments of the sample of example 6 at 25° C., 0 to 95% relative humidity were carried out by a dynamic water adsorber (DVS) to determine the hygroscopicity of the amorphous form of the compound of formula (A).

[4] = Stability comparison test (main peak purity of the samples on storage); details: for decrease of purity: at 25° C. 60 days later
Experimental: Each portion was about 100 mg, placed in a zip-lock bag and added with a desiccant, then three-layer packaged by a two-layer aluminum plastic material with each layer vacuumed, and stored at 25° C. (relative humidity 60%) and 40° C. […] Relevant substances of the samples were respectively determined at 0 day, 30 days, and 60 days later.

[5] = as above; details: at 60° C. 60 days later (so in the source)
[6] = 25° C. (relative humidity 60%), test time 0 day
[7] = 25° C. (relative humidity 60%), test time 30 days
[8] = 25° C. (relative humidity 60%), test time 60 days
[9] = 40° C. (relative humidity 75%), test time 0 day
[10] = 40° C. (relative humidity 75%), test time 30 days
[11] = 40° C. (relative humidity 75%), test time 60 days

Structure (SMILES)	main peak purity [4, 6] [%]	main peak purity [4, 7] [%]	main peak purity [4, 8] [%]	main peak purity [4, 9] [%]	main peak purity [4, 10] [%]	main peak purity [4, 11] [%]	decrease of purity [4]	decrease of purity [5] [%]	hygroscopicity (in words) [2]	solid form (in words) [2]	also measured
CCOc1nc2cccc(C(=O)OC(C)OC(=O)OCc3nc(C)c(C)nc3C)c2n1Cc1ccc(-c2ccccc2-c2noc(=O)[n-]2)cc1.[K+] (stereo not shown) [Formula (B)]	–	–	–	–	–	–	–	–	–	–	stability of the potassium salt of formula (B) in the mixture with crystalline form I compared with formula (B) as a single component [1]: superior; Maximum unknown single impurity ([1]; test time 0 day): 0.05%; Total impurities ([1]; test time 0 day): 0.72%; Maximum unknown single impurity ([1]; test time 30 days): 0.05%; Total impurities ([1]; test time 30 days): 1.29%; Maximum unknown single impurity ([1]; test time 60 days): 0.06%; Total impurities ([1]; test time 60 days): 1.67%; Maximum unknown single impurity ([1]; test time 90 days): 0.04%; Total impurities ([1]; test time 90 days): 1.99%
CCOC(=O)C(C)CC(Cc1ccc(-c2ccccc2)cc1)NC(=O)CCC(=O)O (stereo not shown) [crystalline form I of the compound of formula (A)]	–	–	–	–	–	–	–	–	–	–	hygroscopicity compared with AHU-377 sodium salt and AHU-377 potassium salt [2]: significantly more hygroscopic; change of hygroscopicity ([3]; DVS): do not change much
CCOC(=O)[C@H](C)C[C@@H](Cc1ccc(-c2ccccc2)cc1)NC(=O)CCC(=O)[O-].[Na+] [AHU-377 sodium salt, sodium 4-(((2S,4R)-1-([1,1′-biphenyl]-4-yl)-5-ethoxy-4-methyl-5-oxopentan-2-yl)amino)-4-oxobutyrate]	94.12	94.16	93.75	94.12	94.06	93.86	0.37%	0.26	highly hygroscopic despite less hygroscopic than potassium salt	does not exhibit a good solid form	–
CCOC(=O)[C@H](C)C[C@@H](Cc1ccc(-c2ccccc2)cc1)NC(=O)CCC(=O)O [AHU-377 potassium salt]	93.63	93.31	93.28	94.11	94.05	93.37	0.35%	0.74	highly hygroscopic	failed to exhibit a good solid form	–
CCOC(=O)C(C)CC(Cc1ccc(-c2ccccc2)cc1)NC(=O)CCC(=O)O (stereo not shown) [crystalline form II]	–	–	–	–	–	–	–	–	–	–	change of hygroscopicity ([3]; DVS): changes very little
CCOC(=O)C(C)CC(Cc1ccc(-c2ccccc2)cc1)NC(=O)CCC(=O)O [Compound of formula (A), ammonium 4-((2S,4R)-1-([1, l′-biphenyl]-4-yl)-5-ethoxy-4-methyl-5-oxopentan-2-yl)amino)-4-oxobutanoate]	99.82	99.80	99.82	99.82	99.68	99.58	almost unchanged	0.24	–	–	stability compared with the potassium salt and the sodium salt of AHU-377 [4]: far superior; stability compared with the organic ammonium salt of AHU-377 ([4]; by comparison in the same experiment): superior; hygroscopicity ([3]; DVS, 0 to 95% relative humidity, FIG. 26): less than 2%
CCOC(=O)[C@H](C)C[C@@H](Cc1ccc(-c2ccccc2)cc1)NC(=O)CCC(=O)O [organic ammonium salt of 4 ((2S,4R)-1-([1,1′-biphenyl]-4-yl)]	–	–	–	–	–	–	–	–	high hygroscopicity	cannot be obtained in a solid form	–
CCOC(=O)C(C)CC(Cc1ccc(-c2ccccc2)cc1)NC(=O)CCC(=O)O (stereo not shown)	–	–	–	–	–	–	–	–	–	–	change of the form in DVS ([3]; range of 0 to 95% relative humidity, FIG. 15): do not change
